Assay results from PMC10465960 (Acta Pharmaceutica Sinica. B, 2023).

Molecular target: Trx-A-NMt-PCP (module 2 of the Sas17 NRPS protein) (Streptomyces calvus, UniProt A0A514JVM2)
Conditions: NMt domain; methyl donor for PCP-bound Tyr; 5 mM SAM, 1 h

Sequence of Trx-A-NMt-PCP (module 2 of the Sas17 NRPS protein) (A0A514JVM2 1553-2567): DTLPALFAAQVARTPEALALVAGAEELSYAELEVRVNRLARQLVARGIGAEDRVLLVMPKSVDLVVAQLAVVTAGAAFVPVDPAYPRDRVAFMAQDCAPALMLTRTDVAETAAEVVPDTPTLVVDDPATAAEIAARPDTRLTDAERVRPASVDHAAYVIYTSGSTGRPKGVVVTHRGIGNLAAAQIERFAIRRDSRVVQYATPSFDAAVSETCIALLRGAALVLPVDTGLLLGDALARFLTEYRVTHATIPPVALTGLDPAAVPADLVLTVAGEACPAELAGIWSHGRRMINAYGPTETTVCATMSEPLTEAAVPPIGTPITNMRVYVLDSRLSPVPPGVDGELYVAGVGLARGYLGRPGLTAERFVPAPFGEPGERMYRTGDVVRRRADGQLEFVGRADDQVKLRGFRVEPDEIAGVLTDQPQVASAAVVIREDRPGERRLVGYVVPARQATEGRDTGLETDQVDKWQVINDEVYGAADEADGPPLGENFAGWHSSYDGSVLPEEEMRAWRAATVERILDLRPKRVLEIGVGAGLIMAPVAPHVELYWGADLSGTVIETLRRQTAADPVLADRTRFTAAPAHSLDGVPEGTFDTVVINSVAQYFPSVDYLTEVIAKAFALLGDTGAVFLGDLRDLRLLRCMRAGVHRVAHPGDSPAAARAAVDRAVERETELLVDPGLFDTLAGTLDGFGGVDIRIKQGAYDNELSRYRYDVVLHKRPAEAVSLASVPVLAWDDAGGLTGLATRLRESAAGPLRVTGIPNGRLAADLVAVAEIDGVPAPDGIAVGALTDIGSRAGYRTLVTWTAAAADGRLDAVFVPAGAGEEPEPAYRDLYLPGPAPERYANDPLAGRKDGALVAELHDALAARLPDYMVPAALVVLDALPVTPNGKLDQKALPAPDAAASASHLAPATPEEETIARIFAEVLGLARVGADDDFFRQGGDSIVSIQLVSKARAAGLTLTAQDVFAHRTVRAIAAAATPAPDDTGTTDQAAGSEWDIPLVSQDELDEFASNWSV

## C[S+](CC[C@H](N)C(=O)O)C[C@H]1O[C@@H](n2cnc3c(N)ncnc32)[C@H](O)[C@@H]1O (stereo partly shown) [SAM]
  LC-MS of methylamine-cleaved PCP thioester: Reconstitution of the Mt domain using SAM then led to the methylation of the PCP-bound
